{
  "source": "ChEMBL document CHEMBL1201862",
  "about": "“PubChem BioAssay data set” (2004)",
  "key": {"[1]": {"molecular_target": "T1, Neuropeptide Y receptor type 2 (Homo sapiens, UniProt P49146)", "T1 sequence (P49146 whole entry)": "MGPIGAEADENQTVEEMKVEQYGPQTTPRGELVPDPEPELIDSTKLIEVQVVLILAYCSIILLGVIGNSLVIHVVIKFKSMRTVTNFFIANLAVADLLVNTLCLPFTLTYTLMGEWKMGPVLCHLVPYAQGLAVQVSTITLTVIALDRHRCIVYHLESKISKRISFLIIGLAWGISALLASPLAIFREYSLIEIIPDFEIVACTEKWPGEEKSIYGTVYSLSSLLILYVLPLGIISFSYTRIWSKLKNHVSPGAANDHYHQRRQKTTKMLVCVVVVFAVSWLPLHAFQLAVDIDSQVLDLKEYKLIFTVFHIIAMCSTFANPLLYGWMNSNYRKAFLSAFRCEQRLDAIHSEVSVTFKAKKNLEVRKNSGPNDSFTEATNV", "assay": "NPY-Y2 antagonist potency, selectivity check, dose response, counter-screen for NPY-Y1 antagonist project, cell-based (AID 1278)", "format": "functional"}, "INS1": {"test_system": "INS1", "assay": "beta cell apoptosis inhibitors, cytokine rescue, dose response, luminescence, retest (AID 449756);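 note: cell death triggered by IL-1 beta plus TNF-alpha plus IFN-gamma mixture; protective hits raise ATP signal compared with cytokine alone wells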", "format": "functional, cell-based"}, "[2]": {"molecular_target": "T2, COUP transcription factor 2 (Homo sapiens, UniProt P24468)", "T2 sequence (P24468 whole entry)": "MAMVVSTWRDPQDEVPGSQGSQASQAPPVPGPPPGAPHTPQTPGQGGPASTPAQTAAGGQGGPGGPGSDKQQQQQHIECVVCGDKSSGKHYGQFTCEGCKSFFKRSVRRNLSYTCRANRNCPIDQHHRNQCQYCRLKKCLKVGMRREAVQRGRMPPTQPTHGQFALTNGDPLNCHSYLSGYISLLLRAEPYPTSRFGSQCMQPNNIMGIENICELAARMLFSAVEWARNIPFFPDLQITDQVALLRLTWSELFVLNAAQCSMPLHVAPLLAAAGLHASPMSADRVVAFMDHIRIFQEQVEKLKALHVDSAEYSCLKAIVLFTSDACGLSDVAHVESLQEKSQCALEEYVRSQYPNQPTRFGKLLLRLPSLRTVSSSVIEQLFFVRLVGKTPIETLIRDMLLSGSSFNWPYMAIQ", "assay": "Luminescence-based cell-based high throughput dose response assay to identify inhibitors of COUP-TFII (NR2F2).", "format": "functional"}, "[3]": {"molecular_target": "T3, Neuropeptide Y receptor type 1 (Homo sapiens, UniProt P25929)", "T3 sequence (P25929 whole entry)": "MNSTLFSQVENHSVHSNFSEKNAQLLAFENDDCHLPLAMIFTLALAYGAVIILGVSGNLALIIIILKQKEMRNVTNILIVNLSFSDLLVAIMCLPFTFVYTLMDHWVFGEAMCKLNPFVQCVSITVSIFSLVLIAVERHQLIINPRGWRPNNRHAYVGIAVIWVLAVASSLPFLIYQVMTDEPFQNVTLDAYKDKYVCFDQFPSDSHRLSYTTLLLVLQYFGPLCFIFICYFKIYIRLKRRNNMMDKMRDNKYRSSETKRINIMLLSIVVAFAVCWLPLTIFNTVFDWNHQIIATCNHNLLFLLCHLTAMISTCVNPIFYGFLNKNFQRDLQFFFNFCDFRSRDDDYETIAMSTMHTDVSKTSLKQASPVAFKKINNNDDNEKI", "assay": "NPY-Y1 receptor antagonist potency, dose response, cell-based (AID 1277)", "format": "functional"}, "cells": {"assay": "cells", "format": "functional, cell-based", "details": "HEK-CNG"}, "Galanin receptor type 3": {"molecular_target": "T4, Galanin receptor type 3 (Homo sapiens, UniProt O60755)", "T4 sequence (O60755 whole entry)": "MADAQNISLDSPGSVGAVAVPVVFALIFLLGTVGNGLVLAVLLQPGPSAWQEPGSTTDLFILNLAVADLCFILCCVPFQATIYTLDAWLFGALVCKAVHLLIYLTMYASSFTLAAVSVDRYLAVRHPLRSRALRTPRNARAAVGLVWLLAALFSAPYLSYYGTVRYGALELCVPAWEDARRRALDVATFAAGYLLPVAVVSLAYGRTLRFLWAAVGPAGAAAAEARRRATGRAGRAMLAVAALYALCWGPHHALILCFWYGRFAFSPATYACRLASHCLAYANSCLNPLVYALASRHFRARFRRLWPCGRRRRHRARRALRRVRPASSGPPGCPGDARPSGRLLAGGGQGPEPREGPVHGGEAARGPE", "assay": "Fluorescence-based cell-based primary high throughput dose response assay to identify antagonists of the Galanin Receptor 3 (GalR3).", "format": "functional"}, "[4]": {"assay": "insulin promoter down-regulators in MIN6 cells, imaging, high-content screening, mouse beta cells (AID 1628)", "format": "functional"}, "[5]": {"assay": "cytotoxicity in MIN6 insulinoma cells, dose response, cytotoxicity control, cell-based, mouse insulinoma (AID 2122);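 note: confirmatory high-throughput counterscreen run to flag cytotoxic compounds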", "format": "functional"}, "Protein Wnt-3a": {"molecular_target": "Protein Wnt-3a (Mus musculus, UniProt P27467)", "sequence (P27467 whole entry)": "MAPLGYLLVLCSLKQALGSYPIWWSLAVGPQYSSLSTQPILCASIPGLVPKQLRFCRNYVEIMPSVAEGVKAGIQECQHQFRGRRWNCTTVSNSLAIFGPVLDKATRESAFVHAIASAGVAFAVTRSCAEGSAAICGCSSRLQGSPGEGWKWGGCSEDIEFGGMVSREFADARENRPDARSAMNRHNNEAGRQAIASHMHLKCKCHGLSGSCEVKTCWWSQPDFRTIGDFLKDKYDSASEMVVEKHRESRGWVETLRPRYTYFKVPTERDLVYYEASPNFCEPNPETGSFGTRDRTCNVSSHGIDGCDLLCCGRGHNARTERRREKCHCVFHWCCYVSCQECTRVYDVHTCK", "assay": "Wnt3a-driven reporter signaling inhibition, dose response, selectivity assay for Gli-SUFU antagonist project, Wnt-LIGHT cells, luminescence (AID 651570);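 note: Wnt-LIGHT reporter cells stimulated with conditioned medium from Wnt3a-producing cells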", "format": "functional", "details": "read-out: IC50_Mean"}, "HT-1080": {"test_system": "HT-1080", "assay": "cytotoxicity in HT1080 fibrosarcoma cells, cell-based, fluorescence readout (AID 620)", "format": "functional", "details": "Homo sapiens"}, "[6]": {"assay": "Luminescence-based counterscreen assay for KLF5 inhibitors: dose response cell-based high throughput screening assay to identify cytotoxic compounds using the IEC-6 intestinal epithelial cell line. [Related pubchem assays: 1700 (Primary screen.), 1834 (Confirmation screen.), 1858 (Summary AID.), 1905 (Counterscreen.)]", "format": "functional"}, "[7]": {"molecular_target": "Luciferin 4-monooxygenase (Photinus pyralis, UniProt P08659)", "sequence (P08659 whole entry)": "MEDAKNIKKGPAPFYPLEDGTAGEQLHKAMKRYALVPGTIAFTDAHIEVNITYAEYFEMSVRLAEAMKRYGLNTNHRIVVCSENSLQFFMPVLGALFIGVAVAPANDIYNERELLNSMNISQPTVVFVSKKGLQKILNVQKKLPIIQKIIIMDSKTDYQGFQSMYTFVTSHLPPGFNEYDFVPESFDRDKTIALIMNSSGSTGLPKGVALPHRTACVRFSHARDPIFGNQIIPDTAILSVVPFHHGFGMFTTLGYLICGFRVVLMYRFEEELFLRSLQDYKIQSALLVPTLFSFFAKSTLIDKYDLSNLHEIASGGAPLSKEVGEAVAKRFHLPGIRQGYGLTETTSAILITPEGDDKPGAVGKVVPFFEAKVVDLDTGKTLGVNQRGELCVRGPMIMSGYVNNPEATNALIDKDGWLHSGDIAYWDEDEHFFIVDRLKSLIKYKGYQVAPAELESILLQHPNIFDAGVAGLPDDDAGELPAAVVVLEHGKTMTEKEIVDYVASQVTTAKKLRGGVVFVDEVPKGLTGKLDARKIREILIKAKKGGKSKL", "assay": "Counter Screen for Luciferase-based Assay Positives. [Related pubchem assays: 620, 618, 411 ]"}, "Mucolipin-3": {"molecular_target": "T5, Mucolipin-3 (Homo sapiens, UniProt Q8TDD5)", "T5 sequence (Q8TDD5 whole entry)": "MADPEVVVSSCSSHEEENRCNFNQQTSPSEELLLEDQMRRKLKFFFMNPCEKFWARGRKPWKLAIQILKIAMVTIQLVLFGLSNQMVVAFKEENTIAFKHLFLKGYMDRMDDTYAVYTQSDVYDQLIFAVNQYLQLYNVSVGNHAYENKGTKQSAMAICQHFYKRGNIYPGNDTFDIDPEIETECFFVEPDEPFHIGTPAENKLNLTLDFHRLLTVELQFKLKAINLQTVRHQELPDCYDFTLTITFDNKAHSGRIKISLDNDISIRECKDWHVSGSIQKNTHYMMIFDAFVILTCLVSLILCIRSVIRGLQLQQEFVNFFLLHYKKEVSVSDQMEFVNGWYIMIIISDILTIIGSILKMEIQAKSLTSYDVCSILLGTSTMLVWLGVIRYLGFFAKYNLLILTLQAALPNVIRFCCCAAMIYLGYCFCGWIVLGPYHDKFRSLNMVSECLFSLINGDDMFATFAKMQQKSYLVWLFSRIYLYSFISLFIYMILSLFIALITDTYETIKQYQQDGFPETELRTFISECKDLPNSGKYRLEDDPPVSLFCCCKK", "assay": "Fluorescence counterscreen assay for […] agonists: dose response cell-based high-throughput screening assay to identify agonists of the transient receptor potential channel ML3 (TRPML3). [Related pubchem assays: 1424, 1448 ]", "format": "functional"}, "Troponin, cardiac muscle": {"molecular_target": "Troponin, cardiac muscle (Homo sapiens, UniProt P19429+P45379+P63316)", "assay": "Fluorescence-based biochemical high throughput dose response assay for activators of the calcium sensitivity of cardiac Regulated Thin Filaments (RTF). [Related pubchem assays (depositor defined):AID493008, AID493018, AID504382, AID504383]", "format": "protein-complex assay"}, "[8]": {"assay": "enhancers of respiration in Yfh1-depleted yeast, dose response, Friedreich's ataxia, plus single-dose screen (AID 1465);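 note: yeast depleted of Yfh1p frataxin homolog grown on glycerol needing respiration; WST-1 tetrazolium dye reduction as measure of cellular dehydrogenase metabolic activity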", "format": "functional"}, "Ion channel NompC": {"molecular_target": "Ion channel NompC (Danio rerio, UniProt Q7T1G6)", "sequence (Q7T1G6 whole entry)": "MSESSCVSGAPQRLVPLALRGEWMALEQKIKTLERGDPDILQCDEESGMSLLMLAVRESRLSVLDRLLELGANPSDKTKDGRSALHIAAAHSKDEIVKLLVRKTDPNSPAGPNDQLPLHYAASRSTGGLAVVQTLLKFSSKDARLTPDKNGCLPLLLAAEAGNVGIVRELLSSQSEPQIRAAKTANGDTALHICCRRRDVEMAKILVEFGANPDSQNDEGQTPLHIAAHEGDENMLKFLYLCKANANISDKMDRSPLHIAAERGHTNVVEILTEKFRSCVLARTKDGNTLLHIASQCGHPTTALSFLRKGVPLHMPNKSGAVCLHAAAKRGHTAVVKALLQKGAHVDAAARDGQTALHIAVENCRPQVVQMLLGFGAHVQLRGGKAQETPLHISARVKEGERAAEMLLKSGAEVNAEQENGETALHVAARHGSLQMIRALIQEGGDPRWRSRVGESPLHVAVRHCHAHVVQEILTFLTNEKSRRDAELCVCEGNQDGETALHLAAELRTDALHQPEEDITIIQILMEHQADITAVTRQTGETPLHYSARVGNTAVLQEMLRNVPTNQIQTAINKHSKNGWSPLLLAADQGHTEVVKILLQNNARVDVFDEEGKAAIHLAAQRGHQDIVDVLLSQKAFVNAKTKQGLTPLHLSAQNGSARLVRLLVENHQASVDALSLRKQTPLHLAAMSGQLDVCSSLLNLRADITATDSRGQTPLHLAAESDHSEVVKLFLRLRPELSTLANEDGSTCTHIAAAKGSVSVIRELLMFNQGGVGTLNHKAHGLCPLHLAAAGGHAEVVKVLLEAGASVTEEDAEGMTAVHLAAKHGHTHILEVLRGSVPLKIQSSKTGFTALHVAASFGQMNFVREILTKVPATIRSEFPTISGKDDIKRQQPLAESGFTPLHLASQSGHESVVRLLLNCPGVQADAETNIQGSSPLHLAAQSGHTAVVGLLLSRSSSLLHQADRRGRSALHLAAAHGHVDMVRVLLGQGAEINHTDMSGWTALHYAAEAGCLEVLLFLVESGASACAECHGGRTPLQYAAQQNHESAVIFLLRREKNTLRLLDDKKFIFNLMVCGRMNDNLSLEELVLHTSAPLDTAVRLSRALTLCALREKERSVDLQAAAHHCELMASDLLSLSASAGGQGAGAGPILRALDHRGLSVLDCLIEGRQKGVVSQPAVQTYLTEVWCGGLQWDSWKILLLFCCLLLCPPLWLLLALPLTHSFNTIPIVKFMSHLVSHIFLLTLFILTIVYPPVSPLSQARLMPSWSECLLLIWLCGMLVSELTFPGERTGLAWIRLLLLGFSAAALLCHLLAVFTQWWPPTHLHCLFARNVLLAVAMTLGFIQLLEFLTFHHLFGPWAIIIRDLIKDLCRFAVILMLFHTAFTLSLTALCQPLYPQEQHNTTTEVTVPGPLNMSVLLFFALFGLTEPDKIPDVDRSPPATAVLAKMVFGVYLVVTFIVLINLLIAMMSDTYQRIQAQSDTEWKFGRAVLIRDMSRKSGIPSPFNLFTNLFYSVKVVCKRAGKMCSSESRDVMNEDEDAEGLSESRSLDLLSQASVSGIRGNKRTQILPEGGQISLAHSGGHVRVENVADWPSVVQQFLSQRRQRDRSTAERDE", "assay": "Dose response cell-based high-throughput screening assay for agonists of the transient receptor potential channel N1 (TRPN1). [Related pubchem assays (depositor defined):AID1424, AID1448]", "format": "functional"}, "[9]": {"assay": "Counterscreen for IDE inhibitors: Luminescence-based cell-based high throughput dose response assay to identify compounds that are cytotoxic to HEK cells. [Related pubchem assays: 434962 (Primary screen (IDE inhibitors in singlicate)), 449730 (Counterscreen (Cytotoxicity in triplicate)), 435028 (Confirmation (IDE inhibitors in triplicate)) …", "format": "functional", "details": "HEK293"}, "Insulin-degrading enzyme": {"molecular_target": "T6, Insulin-degrading enzyme (Homo sapiens, UniProt P14735)", "T6 sequence (P14735 whole entry)": "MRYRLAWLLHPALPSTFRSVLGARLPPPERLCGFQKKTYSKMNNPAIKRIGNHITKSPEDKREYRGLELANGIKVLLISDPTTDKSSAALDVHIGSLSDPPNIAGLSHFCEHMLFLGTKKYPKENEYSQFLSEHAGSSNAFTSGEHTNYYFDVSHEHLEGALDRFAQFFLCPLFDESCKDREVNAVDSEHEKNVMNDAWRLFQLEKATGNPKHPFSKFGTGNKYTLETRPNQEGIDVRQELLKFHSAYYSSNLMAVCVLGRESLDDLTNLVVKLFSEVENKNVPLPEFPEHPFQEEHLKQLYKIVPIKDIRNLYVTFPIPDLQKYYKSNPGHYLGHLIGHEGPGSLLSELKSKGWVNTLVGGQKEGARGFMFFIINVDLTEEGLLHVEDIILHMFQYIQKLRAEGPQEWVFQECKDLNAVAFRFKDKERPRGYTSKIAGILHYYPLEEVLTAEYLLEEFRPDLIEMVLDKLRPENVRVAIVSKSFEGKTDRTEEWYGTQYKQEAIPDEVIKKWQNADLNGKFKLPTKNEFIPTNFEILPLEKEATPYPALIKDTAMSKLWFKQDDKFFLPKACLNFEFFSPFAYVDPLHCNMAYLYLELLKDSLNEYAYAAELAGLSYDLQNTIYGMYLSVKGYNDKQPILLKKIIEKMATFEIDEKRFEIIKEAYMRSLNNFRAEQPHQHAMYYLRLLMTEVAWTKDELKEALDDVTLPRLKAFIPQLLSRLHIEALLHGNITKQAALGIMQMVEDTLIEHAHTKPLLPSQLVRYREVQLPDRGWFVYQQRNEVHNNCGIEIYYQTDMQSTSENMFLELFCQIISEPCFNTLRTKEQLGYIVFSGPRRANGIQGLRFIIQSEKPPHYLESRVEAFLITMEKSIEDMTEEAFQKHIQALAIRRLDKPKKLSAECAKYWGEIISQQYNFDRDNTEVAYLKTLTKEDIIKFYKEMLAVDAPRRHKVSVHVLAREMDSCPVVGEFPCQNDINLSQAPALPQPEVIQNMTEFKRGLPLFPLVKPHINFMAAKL", "assay": "Dose Response: Fluorescence polarization-based cell-based high throughput dose response assay for inhibitors of insulin-degrading enzyme (IDE). [Related pubchem assays: 434962 (Primary screen (IDE inhibitors in singlicate)), 449730 (Counterscreen (Cytotoxicity in triplicate)), 435028 (Confirmation (IDE inhibitors in triplicate)), 434984 (Summary …", "format": "functional"}},
  "note": "Calls of active or inactive are those of the source.",
  "data": [
    {"smiles": "COc1ccccc1-n1c(-c2ccccc2)c[n+]2c1CCc1ccccc1-2", "values": [
      {"measurement": "IC50", "setting": "[1]", "value": "11.6 µM (not active)"},
      {"measurement": "AC50", "setting": "INS1; Rattus norvegicus, INS1", "value": "2.31 µM (active)"},
      {"measurement": "AC50", "setting": "INS1; ins1", "value": "3.62 µM (active)"},
      {"measurement": "IC50", "setting": "[2]", "value": "6.73 µM (active)"},
      {"measurement": "IC50", "setting": "[3]", "value": "8.77 µM (active)"},
      {"measurement": "EC50", "setting": "cells", "value": "> 29.9 µM (inactive)"},
      {"measurement": "IC50", "setting": "Galanin receptor type 3", "value": "> 1.11 µM (active)"},
      {"measurement": "IC50", "setting": "[4]", "value": "0.548 µM (active)"},
      {"measurement": "IC50", "setting": "[5]", "value": "0.266 µM (active)"},
      {"measurement": "IC50", "setting": "Protein Wnt-3a", "value": "6.31 µM (active)"}
    ]},
    {"smiles": "O=C(Nc1nccs1)c1cc2c(s1)CCCCC2", "values": [
      {"measurement": "EC50", "setting": "HT-1080", "value": "> 50 µM (not active)"},
      {"measurement": "IC50", "setting": "[6]", "value": "33.2 µM (not active)"},
      {"measurement": "EC50", "setting": "[7]", "value": "8.26 µM (active)"}
    ]},
    {"smiles": "CN1CCS/C1=C/C=C1\\SC(=S)N(CC(=O)O)C1=O", "values": [
      {"measurement": "EC50", "setting": "Mucolipin-3", "value": "12.2 µM (not active)"},
      {"measurement": "EC50", "setting": "Troponin, cardiac muscle", "value": "0.87 µM (active)"},
      {"measurement": "EC50", "setting": "[8]", "value": "> 100 µM (active)"},
      {"measurement": "EC50", "setting": "Ion channel NompC", "value": "5.92 µM (active)"}
    ]},
    {"smiles": "Cc1ccc(/C=N\\NC(=O)/C(=C\\Nc2nccc(C)n2)NC(=O)c2ccccc2)cc1", "values": [
      {"measurement": "IC50", "setting": "[9]", "value": "> 55.7 µM (not active)"},
      {"measurement": "IC50", "setting": "Insulin-degrading enzyme", "value": "5.43 µM (active)"}
    ]}
  ]
}
